Experimental data as given in patent US4546076A, “Enzymatic process for the determination of beta-lactam antibiotics” (U C B Societe Anonyme, priority 1982, dated 1985).

Legend:
Format in all cases: biochemical
[1] = target: T1, D-alanyl-D-alanine-carboxypeptidase produced by Actinomadura R 39 (enzyme R 39), immobilized (Actinomadura sp., UniProt P39045); experiment: Determination of penicillin G in serum with immobilized enzyme R 39 (Example 2); settings: 1 ml serum; for percentage residual enzymatic activity: 20 min
T1 construct: which is excreted by Actinomadura R 39 when this microorganism; made in house; host or cells: Actinomadura R 39 (natural producer; deposit Institut Pasteur No. I-127), purified as in Frere et al., Biochem. J. 143 (1974) 233-240
T1 sequence (P39045 50-538): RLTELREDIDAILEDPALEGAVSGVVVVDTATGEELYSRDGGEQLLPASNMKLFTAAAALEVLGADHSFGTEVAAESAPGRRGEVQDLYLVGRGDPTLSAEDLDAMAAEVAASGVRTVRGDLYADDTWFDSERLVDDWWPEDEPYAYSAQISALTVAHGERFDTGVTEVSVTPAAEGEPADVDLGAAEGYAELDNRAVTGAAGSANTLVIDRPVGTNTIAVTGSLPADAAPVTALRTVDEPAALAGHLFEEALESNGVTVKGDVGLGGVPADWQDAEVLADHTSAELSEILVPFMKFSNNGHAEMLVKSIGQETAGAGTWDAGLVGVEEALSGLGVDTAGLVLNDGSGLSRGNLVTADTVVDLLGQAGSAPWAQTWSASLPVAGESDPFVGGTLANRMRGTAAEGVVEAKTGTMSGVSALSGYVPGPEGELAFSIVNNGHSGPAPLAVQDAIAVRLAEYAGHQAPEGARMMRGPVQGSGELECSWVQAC
Method: (§1) A series of 1 ml milk samples each containing a known concentration of penicillin G and two 1 ml milk samples (blank and control) not containing penicillin G are prepared.
(§2) 5.5 mg of immobilized enzyme R 39 (=3 picomols of enzyme) are added to each sample and the mixture is incubated for 20 minutes at 37° C.
(§3) The milk is then separated from the immobilized enzyme by filtration and the immobilized enzyme is washed three times with 1 ml of 0.1M Hepes buffer (pH=7.7) containing 0.1M NaCl and 0.05M MgCl2.
(§4) Either 20 μl of 0.1M Hepes buffer (pH=7.7) containing 0.1M NaCl and 0.05M MgCl2 and 10 μl of the substrate solution (in the case of the control sample and the samples containing penicillin G), or 20 μl of the Hepes buffer and 10 μl of water (in the case of the blank sample), are then added to the separated and washed immobilized enzyme. The mixture is incubated for 30 minutes at 37° C.
(§5) At the end of this incubation, 2 μl of the D-amino acid oxidase suspension, 60 μl of the FAD solution, 10 μl of the peroxidase solution and 5 μl of the o-dianisidine solution are added respectively to the product obtained; the mixture is then incubated again for 10 minutes at 37° C.
(§6) The optical density of the colored solutions obtained is then measured on a spectrophotometer. For this purpose, 1 ml of a methanol/water solution (proportions 1:1) is added to the cell and the optical density is measured at 460 nm.
(§7) The optical density value found for the blank sample is subtracted from the optical density values found respectively for the control sample and for the other samples. Finally, the percentage residual enzymatic activity is calculated for each sample from the optical density values thus obtained.
(§8) The procedure of Example 1 is followed, using the same reagents but replacing the 1 ml milk samples by 1 ml serum or 1 ml urine samples.

[2] = target: T1, D-alanyl-D-alanine-carboxypeptidase produced by Actinomadura R 39 (enzyme R 39), immobilized; experiment: Determination of penicillin G in urine with immobilized enzyme R 39 (Example 2); settings: 1 ml urine; for percentage residual enzymatic activity: 20 min
Method: as §1, §2, §3, §4, §5, §6, §7, §8

[3] = target: T1, D-alanyl-D-alanine-carboxypeptidase produced by Actinomadura R 39 (enzyme R 39), immobilized; experiment: Determination of penicillin G in milk with immobilized enzyme R 39 (Example 1); settings: for coloration observed / optical density at 460 nm / optical density found minus optical density of the blank sample / percentage residual enzymatic activity: 1 ml milk; for percentage residual enzymatic activity: 20 min
Method: as §1, §2, §3, §4, §5, §6, §7

[4] = target: T1, D-alanyl-D-alanine-carboxypeptidase produced by Actinomadura R 39 (enzyme R 39), immobilized; experiment: Dosage of cephalosporin C in serum with immobilized enzyme R 39 at higher temperature (Example 4)
Method: The procedure of Example 3 is followed but each incubation is carried out at 47° C. and at half the time.
Moreover, to each ml sample of serum, there is previously added 100 μl of 0.5M (pH 7.7) Hepes buffer containing 0.5M NaCl and 0.25M MgCl2.

[5] = target: T1, D-alanyl-D-alanine-carboxypeptidase produced by Actinomadura R 39 (enzyme R 39), immobilized; experiment: Dosage of cephalosporin C in serum with immobilized enzyme R 39 (Example 3)
Method: as §1, §2, §3, §4, §5, §6, §7
The procedure of Example 1 is followed, using the same reagents but replacing the 1 ml milk samples by 1 ml serum samples containing each a known concentration of cephalosporin C.

[6] = penicillin G 0.0005 I.U./ml, 1st series
[7] = penicillin G 0.0005 I.U./ml, 2nd series
[8] = penicillin G 0.0010 I.U./ml, 1st series
[9] = penicillin G 0.0010 I.U./ml, 2nd series
[10] = penicillin G 0.0015 I.U./ml, 2nd series
[11] = penicillin G 0.0020 I.U./ml, 1st series
[12] = penicillin G 0.0020 I.U./ml, 2nd series
[13] = penicillin G 0.0041 I.U./ml, 1st series
[14] = penicillin G 0.0082 I.U./ml, 1st series
[15] = cephalosporin C 1 ng/ml, 1 ml serum, each incubation at 47° C. and half the time
[16] = cephalosporin C 2 ng/ml, 1 ml serum, each incubation at 47° C. and half the time
[17] = cephalosporin C 10 ng/ml, 1 ml serum, each incubation at 47° C. and half the time
[18] = cephalosporin C 1 ng/ml, 1 ml serum, 37° C.
[19] = cephalosporin C 2 ng/ml, 1 ml serum, 37° C.
[20] = cephalosporin C 10 ng/ml, 1 ml serum, 37° C.

CC1(C)S[C@@H]2[C@H](NC(=O)Cc3ccccc3)C(=O)N2[C@H]1C(=O)O [penicillin G, benzylpenicillin]
concentration determined visually (light yellow coloration) [1]: at least 0.003 I.U./ml | coloration observed ([1]; penicillin G 0.003 I.U./ml): light yellow | optical density at 460 nm ([1]; penicillin G 0.003 I.U./ml): 0.035 | optical density found minus optical density of the blank sample ([1]; penicillin G 0.003 I.U./ml): 0.005 | percentage residual enzymatic activity ([1]; penicillin G 0.003 I.U./ml): 4% | coloration observed ([1]; penicillin G 0.010 I.U./ml): light yellow | optical density at 460 nm ([1]; penicillin G 0.010 I.U./ml): 0.030 | optical density found minus optical density of the blank sample ([1]; penicillin G 0.010 I.U./ml): 0.000 | percentage residual enzymatic activity ([1]; penicillin G 0.010 I.U./ml): 0% | concentration determined visually (light yellow coloration) [2]: at least 0.003 I.U./ml | coloration observed ([2]; penicillin G 0.003 I.U./ml): light yellow | optical density at 460 nm ([2]; penicillin G 0.003 I.U./ml): 0.040 | optical density found minus optical density of the blank sample ([2]; penicillin G 0.003 I.U./ml): 0.010 | percentage residual enzymatic activity ([2]; penicillin G 0.003 I.U./ml): 8% | coloration observed ([2]; penicillin G 0.010 I.U./ml): light yellow | optical density at 460 nm ([2]; penicillin G 0.010 I.U./ml): 0.035 | optical density found minus optical density of the blank sample ([2]; penicillin G 0.010 I.U./ml): 0.005 | percentage residual enzymatic activity ([2]; penicillin G 0.010 I.U./ml): 4% | coloration observed [3, 6]: brown | optical density at 460 nm [3, 6]: 0.170 | optical density found minus optical density of the blank sample [3, 6]: 0.135 | percentage residual enzymatic activity [3, 6]: 82% | coloration observed [3, 7]: yellow-brown | optical density at 460 nm [3, 7]: 0.145 | optical density found minus optical density of the blank sample [3, 7]: 0.110 | percentage residual enzymatic activity [3, 7]: 69% | coloration observed [3, 8]: yellow-brown | optical density at 460 nm [3, 8]: 0.150 | optical density found minus optical density of the blank sample [3, 8]: 0.115 | percentage residual enzymatic activity [3, 8]: 69% | coloration observed [3, 9]: yellow-brown | optical density at 460 nm [3, 9]: 0.100 | optical density found minus optical density of the blank sample [3, 9]: 0.065 | percentage residual enzymatic activity [3, 9]: 41% | coloration observed [3, 10]: yellow | optical density at 460 nm [3, 10]: 0.055 | optical density found minus optical density of the blank sample [3, 10]: 0.020 | percentage residual enzymatic activity [3, 10]: 12% | coloration observed [3, 11]: light yellow | optical density at 460 nm [3, 11]: 0.035 | optical density found minus optical density of the blank sample [3, 11]: 0.000 | percentage residual enzymatic activity [3, 11]: 0% | coloration observed [3, 12]: light yellow | optical density at 460 nm [3, 12]: 0.040 | optical density found minus optical density of the blank sample [3, 12]: 0.005 | percentage residual enzymatic activity [3, 12]: 3% | coloration observed [3, 13]: light yellow | optical density at 460 nm [3, 13]: 0.040 | optical density found minus optical density of the blank sample [3, 13]: 0.005 | percentage residual enzymatic activity [3, 13]: 3% | coloration observed [3, 14]: light yellow | optical density at 460 nm [3, 14]: 0.035 | optical density found minus optical density of the blank sample [3, 14]: 0.000 | percentage residual enzymatic activity [3, 14]: 0% | residual enzymatic activity ([3]; sample containing 0.002 I.U. or more per ml of milk): zero

CC(=O)OCC1=C(C(=O)O)N2C(=O)[C@@H](NC(=O)CCC[C@@H](N)C(=O)O)[C@H]2SC1 [cephalosporin C]
remaining activity at 0.01 µg/mL ([4]; 10 min, read-out: percentage residual enzymatic activity): 0% | remaining activity at 0.001 µg/mL ([4]; 10 min, cephalosporin C 1 ng/ml, 1 ml serum, each incubation at 47° C. and half the time, read-out: percentage residual enzymatic activity): 41% | remaining activity at 0.002 µg/mL ([4]; 10 min, cephalosporin C 2 ng/ml, 1 ml serum, each incubation at 47° C. and half the time, read-out: percentage residual enzymatic activity): 0% | coloration observed [4, 15]: light brown | optical density at 460 nm [4, 15]: 0.095 | optical density found minus optical density of the blank sample [4, 15]: 0.060 | coloration observed [4, 16]: light yellow | optical density at 460 nm [4, 16]: 0.035 | optical density found minus optical density of the blank sample [4, 16]: 0.000 | coloration observed [4, 17]: light yellow | optical density at 460 nm [4, 17]: 0.040 | optical density found minus optical density of the blank sample [4, 17]: 0.005 | remaining activity at 0.001 µg/mL ([5]; 20 min, read-out: percentage residual enzymatic activity): 44% | remaining activity at 0.002 µg/mL ([5]; 20 min, cephalosporin C 2 ng/ml, 1 ml serum, 37° C., read-out: percentage residual enzymatic activity): 8% | remaining activity at 0.01 µg/mL ([5]; 20 min, cephalosporin C 10 ng/ml, 1 ml serum, 37° C., read-out: percentage residual enzymatic activity): 0% | coloration observed [5, 18]: light yellow | optical density at 460 nm [5, 18]: 0.085 | optical density found minus optical density of the blank sample [5, 18]: 0.055 | coloration observed [5, 19]: light yellow | optical density at 460 nm [5, 19]: 0.040 | optical density found minus optical density of the blank sample [5, 19]: 0.010 | coloration observed [5, 20]: light yellow | optical density at 460 nm [5, 20]: 0.030 | optical density found minus optical density of the blank sample [5, 20]: 0.000
